Series [1] has as its system U87MG cells. The experiment in a line: MTT cell viability assay. In kind it is cell-based. The following applies: Homo sapiens, U-87 MG, 72 h. Here is the method: (§1) U87MG, U251, U87MG-EGFRvIII, and U87MG-TMZR cells were cultured in DMEM supplemented with 10% FBS and plated at low density in 96-well plates (2000 cells per well). Then, the cells were treated with different concentrations of gefitinib or compound SMUZ106 for a period of 72 h. MTT (5 mg/mL) was added to each well, and the cells were incubated for another 4 h at 37 °C. The optical density value at 570 nm was measured using a microplate reader (TECAN, Männedorf, Switzerland).

The subject of series [2] is U87MG-TMZR cells (TMZ-resistant U87MG cells). The experiment in a line: MTT cell viability assay. In kind it is cell-based. The following applies: Homo sapiens, U-87 MG, 72 h. Here is the method:
as §1
(In general: Tetrazolium assays rely on reduction of a dye to a coloured formazan, in cell work by metabolically active cells.)

In series [3] the test system is U251 cells. The experiment in a line: MTT cell viability assay. In kind it is cell-based. The following applies: Homo sapiens, U-251, 72 h. The protocol: as §1
Series [4] has as its system U87MG-EGFRvIII cells. The experiment in a line: MTT cell viability assay. As to conditions: 72 h. In kind it is cell-based. The protocol: as §1
For series [5], the system named is U251 cells. The series can be described thus: Colony formation assay. In kind it is cell-based. The following applies: 1, 3 and 10 μM. Here is the method:
(§2) U87MG, U251, U87MG-EGFRvIII, and U87MG-TMZR cells were trypsinized, and suspended in 6-well plates. After a period of 24 h, the cells were exposed to compound SMUZ106 with different concentrations (1, 3, and 10 μM), and the U87MG-TMZR cells were exposed to compound SMUZ106 with different concentrations (3, 10, and 30 μM) for 72 h. After 10–14 days of cultivation, the cells were stained with 0.4% trypan blue to visualize the formed colony and to count the number of colonies by Enzyme-Linked Immunospot Analyzer (CTL, Shaker Heights, OH, USA).

For series [6], the system named is U87MG cells. The experiment in a line: Colony formation assay. It is filed as cell-based. The following applies: 1, 3 and 10 μM. Here is the method: as §2
Series [7] relates to U87MG-EGFRvIII cells. The experiment in a line: Colony formation assay. In kind it is cell-based. As to conditions: 1, 3 and 10 μM. Here is the method: as §2
Series [8] deals with U87MG-TMZR cells. The experiment in a line: Colony formation assay. In kind it is cell-based. As to conditions: 3, 10 and 30 μM. Here is the method:
as §2

Series [9] relates to U87MG-EGFRvIII cells. The series can be described thus: Cell cycle analysis by flow cytometry (PI). It is filed as cell-based. The following applies: 48 h; for cells in S phase: control 35.68%; for cells in G0/G1 phase: control 50.82%. Here is the method:
(§3) U87MG-EGFRvIII cells were seeded into 6-well plates and treated with different concentrations of the compound SMUZ106 (2.5, 5, and 10 μM) for 48 h. Following the treatment, the cells were harvested, washed twice with cold PBS, and fixed overnight at 4 °C in 70% ethanol, then stained with PI solution to analyze the cell cycle distribution via flow cytometry. The results were determined using the ModFit LT 5.0 software. Each assay was performed in triplicates.

Series [10] relates to U87MG-EGFRvIII cells. The series can be described thus: Apoptosis analysis by flow cytometry (Annexin V-FITC/PI). It is filed as cell-based. As to conditions: 48 h. Here is the method:
as §3
To perform the apoptosis analysis, after being washed with PBS, the cells were resuspended in 195 μL Annexin V-FITC binding solution, and then 5 µL of Annexin V-FITC was added, followed by 10 µL PI. Following incubation at room temperature for 20 min in the dark, cell apoptosis rates were detected by flow cytometry. The data were analyzed using FlowJo_V10 software.
Background: Flow cytometry measures light scatter and fluorescence of single cells or particles in a stream.

Series [11] concerns phospho-EGFR. The experiment in a line: Western blotting of EGFR signaling in U87MG cells. It is filed as cell-based. As to conditions: 2.5, 5 and 10 μM, 48 h. Here is the method:
(§4) The GBM cells were exposed to compound SMUZ106 at different concentrations (2.5, 5, and 10 μM) for 48 h, and the total proteins were extracted from the cells using RIPA lysis buffer. The concentration of the obtained protein was determined using the BCA Protein Assay Kit (Thermo Fisher, Waltham, MA, USA). Equivalent protein samples (30 μg) were subjected to SDS-PAGE gels and transferred to NC membranes (PALL, Port Washington, NY, USA). Then, the membranes were blocked with 5% milk in TBST for 1 h at RT and probed with primary antibodies diluted overnight at 4 °C, followed by incubation with appropriate secondary antibodies for 1 h at RT. Finally, the protein bands were visualized and scanned using an imaging system (ProteinSimple, Santa Clara, CA, USA).
(A western blot detects proteins with antibodies after separation by electrophoresis.)

Series [12] concerns phospho-EGFR. The series can be described thus: Western blotting of EGFR signaling in U87MG-EGFRvIII cells. In kind it is cell-based. The following applies: 2.5, 5 and 10 μM, 48 h. The protocol: as §4
In series [13] the target is T1, EGFR (Homo sapiens, UniProt P00533). The series can be described thus: HTRF KinEASE-TK single-point kinase assay. In kind it is biochemical. As to conditions: read-out: inhibition rate EGFR. Here is the method:
(§5) IC50 determinations for EGFR were performed with the Z’-LYTE technology platform (Life Technologies), according to the manufacturer’s instructions. The enzyme activity assays of compound SMUZ106 were performed at a single-point concentration (1 μM) against 76 kinases by using the HTRF KinEASE-TK assay according to the manufacturer’s instructions.

Series [14] deals with T2, HER2 (Homo sapiens, UniProt P04626). The experiment in a line: HTRF KinEASE-TK single-point kinase assay. In kind it is biochemical. As to conditions: read-out: inhibition rate HER2. The protocol:
as §5

Series [15] concerns the target T3, HER4 (Homo sapiens, UniProt Q15303). The experiment in a line: HTRF KinEASE-TK single-point kinase assay. It is filed as biochemical. As to conditions: read-out: inhibition rate HER4. Here is the method: as §5
Series [16] concerns panel of 76 tyrosine kinases. The experiment in a line: Kinase selectivity screen (HTRF KinEASE-TK). In kind it is biochemical. The following applies: 1 μM, 76 kinases. Here is the method:
as §5

Series [17] is described as follows: Solubility by HPLC. In kind it is physicochemical. Here is the method: The solubility of the compound SMUZ106 and its related salts in artificial gastric juice, artificial intestinal fluid, and physiological saline were determined by HPLC. […] Therefore, SMUZ106 hydrochloride was selected for the pharmacokinetic analysis.
Series [18] in a line: Pharmacokinetics study in mice. The following applies: male, Kunming, mouse, plasma. In kind it is in vivo. Here is the method: A total of 72 male Kunming mice with an average weight of 20 g were purchased from Southern Medical University (Guangzhou, China) and divided into three groups, with […]. SMUZ106 was dissolved in 0.5% CMC-Na to prepare a suspension for oral administration (100 mg/kg). […] For the intravenous and oral administration, blood samples (0.5 mL) were collected from the mice’s orbital veins and placed into heparinized tubes at 0.25, 0.5, 1, 2, 6, 8, 12, and 24 h following administration. After centrifuging all the samples at 8000 r/min for 5 min, the supernatants were stored at −80 °C until analysis. Subsequently, the plasma samples were transferred to a clean 1.5 mL centrifuge tube and spiked with 100 μL of the internal standard solution (gefitinib, 1.0 μg/mL). Methyl alcohol was then added to the mixture, vortexed for 2 min, and centrifuged at 13,000 r/min for 30 min. […] A 10 µL aliquot of each sample was injected into the LC-MS/MS system for analysis. The pharmacokinetic parameters, such as half-life (t1/2), time of peak plasma concentration (Tmax), maximum plasma concentration (Cmax), mean residence time (MRT), area under the concentration–time curve (AUC), and bioavailability (F), were determined using DAS 2.0 software.

Series [19] deals with T1, EGFR. Further details: method as in PMID 27132165. As to conditions: read-out: IC50 EGFR kinase; cited from earlier work.
The target in series [20] is T2, HER2. Details: method as in PMID 27132165. The following applies: Figure S1; read-out: IC50 HER2 kinase; cited from earlier work.
Series [21] deals with T3, HER4. Further details: method as in PMID 27132165. As to conditions: Figure S1; read-out: IC50 HER4 kinase; cited from earlier work.

Values after ≈ are worked out from the molar mass of the structure shown.

T3 sequence (Q15303 26-1308): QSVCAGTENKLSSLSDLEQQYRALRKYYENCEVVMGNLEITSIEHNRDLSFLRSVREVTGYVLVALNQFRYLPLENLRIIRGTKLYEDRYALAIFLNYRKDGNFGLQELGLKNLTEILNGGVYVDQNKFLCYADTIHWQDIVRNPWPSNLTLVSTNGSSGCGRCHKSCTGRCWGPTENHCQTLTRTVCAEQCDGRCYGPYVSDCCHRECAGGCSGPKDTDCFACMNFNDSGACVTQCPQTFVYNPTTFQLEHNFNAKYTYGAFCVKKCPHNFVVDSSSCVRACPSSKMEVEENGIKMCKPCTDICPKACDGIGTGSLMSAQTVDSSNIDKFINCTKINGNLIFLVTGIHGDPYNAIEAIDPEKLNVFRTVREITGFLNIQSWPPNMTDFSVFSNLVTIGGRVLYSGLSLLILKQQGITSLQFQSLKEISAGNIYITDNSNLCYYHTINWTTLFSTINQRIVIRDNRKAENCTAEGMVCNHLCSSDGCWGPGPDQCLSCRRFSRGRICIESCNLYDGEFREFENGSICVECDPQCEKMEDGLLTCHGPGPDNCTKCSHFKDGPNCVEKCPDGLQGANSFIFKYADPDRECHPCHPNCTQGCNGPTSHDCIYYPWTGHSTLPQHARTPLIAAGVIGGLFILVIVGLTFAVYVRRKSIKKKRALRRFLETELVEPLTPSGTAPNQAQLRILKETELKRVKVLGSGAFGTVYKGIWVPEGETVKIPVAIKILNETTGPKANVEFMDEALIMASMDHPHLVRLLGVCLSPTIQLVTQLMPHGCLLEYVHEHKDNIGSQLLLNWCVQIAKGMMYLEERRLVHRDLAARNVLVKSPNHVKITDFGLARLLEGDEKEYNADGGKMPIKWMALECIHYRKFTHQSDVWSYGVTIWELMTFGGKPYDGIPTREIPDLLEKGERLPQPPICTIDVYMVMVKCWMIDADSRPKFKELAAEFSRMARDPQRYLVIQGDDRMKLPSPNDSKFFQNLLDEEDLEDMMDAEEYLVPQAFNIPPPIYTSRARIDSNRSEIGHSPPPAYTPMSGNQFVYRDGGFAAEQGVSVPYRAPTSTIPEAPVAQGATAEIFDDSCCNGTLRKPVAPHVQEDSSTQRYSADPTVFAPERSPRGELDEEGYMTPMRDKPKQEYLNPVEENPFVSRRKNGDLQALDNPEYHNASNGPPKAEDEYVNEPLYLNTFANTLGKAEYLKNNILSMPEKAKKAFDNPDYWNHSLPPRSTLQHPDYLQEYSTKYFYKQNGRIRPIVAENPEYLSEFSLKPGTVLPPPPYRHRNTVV
T2 sequence (P04626 23-1255): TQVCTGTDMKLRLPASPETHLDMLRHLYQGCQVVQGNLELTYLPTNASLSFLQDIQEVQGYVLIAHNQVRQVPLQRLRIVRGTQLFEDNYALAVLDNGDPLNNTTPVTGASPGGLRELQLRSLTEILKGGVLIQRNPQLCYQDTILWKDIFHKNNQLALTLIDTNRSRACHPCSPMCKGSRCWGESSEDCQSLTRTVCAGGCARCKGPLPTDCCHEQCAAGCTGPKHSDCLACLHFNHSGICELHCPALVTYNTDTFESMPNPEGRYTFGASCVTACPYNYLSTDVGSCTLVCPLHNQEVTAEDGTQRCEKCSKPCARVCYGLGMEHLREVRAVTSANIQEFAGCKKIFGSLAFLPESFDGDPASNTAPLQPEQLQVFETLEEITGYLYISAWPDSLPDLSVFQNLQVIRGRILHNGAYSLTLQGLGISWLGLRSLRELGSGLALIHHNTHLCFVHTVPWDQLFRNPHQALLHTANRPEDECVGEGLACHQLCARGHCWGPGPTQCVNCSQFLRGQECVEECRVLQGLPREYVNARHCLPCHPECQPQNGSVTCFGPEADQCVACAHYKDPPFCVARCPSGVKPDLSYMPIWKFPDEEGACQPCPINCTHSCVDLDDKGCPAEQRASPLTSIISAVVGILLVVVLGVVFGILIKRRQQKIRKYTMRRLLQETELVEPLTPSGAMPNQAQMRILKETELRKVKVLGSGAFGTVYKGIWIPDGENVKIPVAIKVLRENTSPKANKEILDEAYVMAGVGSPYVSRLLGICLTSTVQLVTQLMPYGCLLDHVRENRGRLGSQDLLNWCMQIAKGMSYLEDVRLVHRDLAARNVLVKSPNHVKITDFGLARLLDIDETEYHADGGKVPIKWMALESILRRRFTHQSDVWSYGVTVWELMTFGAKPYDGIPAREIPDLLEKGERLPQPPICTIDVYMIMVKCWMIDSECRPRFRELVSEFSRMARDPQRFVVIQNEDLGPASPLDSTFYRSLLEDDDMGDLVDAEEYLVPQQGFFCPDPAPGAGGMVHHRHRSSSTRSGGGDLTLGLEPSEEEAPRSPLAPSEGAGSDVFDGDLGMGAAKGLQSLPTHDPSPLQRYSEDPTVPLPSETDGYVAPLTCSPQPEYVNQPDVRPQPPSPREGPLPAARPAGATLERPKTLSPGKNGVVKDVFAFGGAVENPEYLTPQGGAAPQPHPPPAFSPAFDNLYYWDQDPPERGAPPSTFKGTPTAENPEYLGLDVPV
T1 sequence (P00533 25-1210): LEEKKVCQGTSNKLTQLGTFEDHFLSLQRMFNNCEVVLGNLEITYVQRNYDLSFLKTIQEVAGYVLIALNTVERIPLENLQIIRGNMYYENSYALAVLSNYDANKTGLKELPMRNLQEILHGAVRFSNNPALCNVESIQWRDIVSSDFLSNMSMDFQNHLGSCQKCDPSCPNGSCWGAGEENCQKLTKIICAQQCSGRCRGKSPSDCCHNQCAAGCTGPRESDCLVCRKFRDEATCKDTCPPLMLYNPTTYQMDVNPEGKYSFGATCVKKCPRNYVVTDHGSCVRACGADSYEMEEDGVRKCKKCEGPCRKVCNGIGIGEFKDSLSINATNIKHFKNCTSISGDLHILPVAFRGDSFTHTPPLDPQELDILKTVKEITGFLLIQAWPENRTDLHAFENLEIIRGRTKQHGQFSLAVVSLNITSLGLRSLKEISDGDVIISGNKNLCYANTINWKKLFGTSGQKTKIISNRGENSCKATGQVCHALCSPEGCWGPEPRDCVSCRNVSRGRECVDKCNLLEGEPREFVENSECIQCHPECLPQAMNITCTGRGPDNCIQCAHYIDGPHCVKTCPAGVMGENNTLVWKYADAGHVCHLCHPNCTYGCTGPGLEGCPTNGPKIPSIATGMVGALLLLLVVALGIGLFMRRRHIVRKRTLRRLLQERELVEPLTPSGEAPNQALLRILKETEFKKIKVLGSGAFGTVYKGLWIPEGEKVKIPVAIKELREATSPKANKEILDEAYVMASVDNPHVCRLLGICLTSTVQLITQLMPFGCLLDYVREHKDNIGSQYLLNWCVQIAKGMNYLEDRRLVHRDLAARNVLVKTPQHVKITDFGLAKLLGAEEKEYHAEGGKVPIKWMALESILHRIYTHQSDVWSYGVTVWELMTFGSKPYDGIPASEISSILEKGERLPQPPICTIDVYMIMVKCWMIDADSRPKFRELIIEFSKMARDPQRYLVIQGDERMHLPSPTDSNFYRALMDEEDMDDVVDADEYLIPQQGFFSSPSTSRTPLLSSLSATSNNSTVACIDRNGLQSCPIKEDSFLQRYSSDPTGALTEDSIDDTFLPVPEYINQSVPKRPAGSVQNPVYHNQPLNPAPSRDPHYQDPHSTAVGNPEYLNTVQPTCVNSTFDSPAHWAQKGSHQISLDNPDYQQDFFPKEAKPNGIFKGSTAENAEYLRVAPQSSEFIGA

By IC50 is commonly meant the midpoint of a concentration-inhibition curve. Take `Cn1nnc2c(C(N)=O)ncn2c1=O` [TMZ, temozolomide, reference compound]: the results for the IC50 in series [1] and in series [2] were 501 µM and 2040 µM, respectively.

The term inhibition denotes how much of the control response was suppressed. The solubility is the dissolved amount per volume that the medium holds. A lower solubility goes with a poorly soluble substance. Broadly, the bioavailability is dose-corrected exposure relative to a reference, in per cent. What is called AUC(0-inf) is total exposure, with the tail of the curve extrapolated. One may read the Cmax as the maximum level reached in the sampled fluid or tissue. The term Tmax denotes the time at which the peak concentration occurs. What is called half-life is the time in which the quantity being followed falls by half. A lower half-life goes with fast loss. In the case of `c1cnc2ccc(Nc3ncnc4ccc(-c5cnn(C6CCNCC6)c5)cc34)cc2c1` [SMUZ106, 6-(1-(piperidin-4-yl)-1H-pyrazol-4-yl)-N-(quinolin-6-yl)quinazolin-4-amine], the 50% inhibitory concentration (IC50) was 10.3 µM in series [3]; 7.43 µM in [1]; 4.36 µM in series [4]; 7.86 µM in series [2]; 0.0441 µM in series [19]; 0.874 µM in [20]. The IC50 in [21] was 0.93 µM. Besides, the “clonogenicity (number of colonies)” value in series [5], in series [6] and in series [7] was “significantly decreased the clonogenicity” in each case. In series [8], the clone formation entry is “could inhibit the proliferation of TMZ-resistant U87MG cells”. Besides, the “cells in S phase” value in series [9] (2.5 μM) is on record as 27.08%; in [9] (5 μM), 24.01%; in series [9] (10 μM), 20.78%. Moreover, the “cells in G0/G1 phase” value is reported as 54.44% in [9] (2.5 μM), 58.17% in series [9] (5 μM) and 62.50% in series [9] (10 μM). The “percentage of apoptotic cells” value is listed as 2.34% in series [10] (2.5 μM), 2.70% in series [10] (5 μM) and 3.02% in series [10] (10 μM). In addition, the “phosphorylation levels of AKT and Erk1/2” value in [11] and in series [12] was “did not significantly downregulate” each time. Also, the “protein expression level of total EGFR” value in [11] and in series [12] was “remained unchanged” throughout. Besides, the “protein level of phospho-EGFR” value in series [11] and in series [12] was “decreased dose dependently” each time. Moreover, the results for the inhibition at 1 µM in series [13], in series [14] and in series [15] were 98.7%, 75.4% and 87.3%, respectively. Moreover, in series [16], the kinase selectivity result is given as “excellent selectivity to EGFR”. Also, the solubility is 16.8 mg/mL (≈ 39.8 mM) in series [17] (artificial gastric juice, simulated gastric fluid); 0.22 mg/mL (≈ 0.522 mM) in series [17] (artificial intestinal juice, fassgf or other biorelevant); 16.8 mg/mL (≈ 39.8 mM) in [17] (medium not named in the sentence (values match artificial gastric juice of Table S2)); 3.69 mg/mL (≈ 8.75 mM) in [17] (normal saline, saline or isotonic). Moreover, in [18] (oral, p.o. 100 mg/kg vs i.v. 25 mg/kg, read-out: F (absolute bioavailability)), the bioavailability worked out at 29%. Also, the area under the curve AUC(0-inf) in series [18] (po, p.o. 100 mg/kg) turned out to be 7510 ± 1060 ng·h/mL. The peak level in series [18] (po, p.o. 100 mg/kg) (Cmax) was 1190 ± 464 ng/mL. Further, in [18] (po, p.o. 100 mg/kg), the time to peak (Tmax) was found to be 6 h. The compound also gave a half-life in [18] (po, p.o. 100 mg/kg) of 0.87 ± 0.01 h. Besides, in [18] (po, p.o. 100 mg/kg, read-out: MRT0→t), the MRT last was 6.32 ± 0.22 h.

These data come from paper PMC10220892 (Pharmaceutics, 2023).
